Source: patent US20250346592A1 (Celgene Corporation, priority 2022, published 2025)
pIC50: −log10 of the molar value.

Biological target: hPAD4 enzyme (Homo sapiens (Human), UniProt Q9UM07)
Assay: RFMS2 assay (RapidFire mass spectrometry, TSTGGRQGSHH peptide substrate)
Type: biochemical
Settings: 35 nM recombinant human PAD4, 500 μM TSTGGRQGSHH peptide, 30 minutes at room temperature; read-out: RFMS 2 IC50
Procedure, shortened: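 Recombinant human PAD4 (35 nM) with 500 μM TSTGGRQGSHH peptide in HEPES pH 7.4, 200 mM NaCl, 2 mM CaCl2, 5 mM DTT, 1.2% DMSO, 30 min at room temperature; 3-fold compound series, top 20 μM. Quenched with formic acid; substrate and citrullinated product quantified by RapidFire MRM mass spectrometry for IC50.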

Sequence of hPAD4 enzyme (Q9UM07 whole entry): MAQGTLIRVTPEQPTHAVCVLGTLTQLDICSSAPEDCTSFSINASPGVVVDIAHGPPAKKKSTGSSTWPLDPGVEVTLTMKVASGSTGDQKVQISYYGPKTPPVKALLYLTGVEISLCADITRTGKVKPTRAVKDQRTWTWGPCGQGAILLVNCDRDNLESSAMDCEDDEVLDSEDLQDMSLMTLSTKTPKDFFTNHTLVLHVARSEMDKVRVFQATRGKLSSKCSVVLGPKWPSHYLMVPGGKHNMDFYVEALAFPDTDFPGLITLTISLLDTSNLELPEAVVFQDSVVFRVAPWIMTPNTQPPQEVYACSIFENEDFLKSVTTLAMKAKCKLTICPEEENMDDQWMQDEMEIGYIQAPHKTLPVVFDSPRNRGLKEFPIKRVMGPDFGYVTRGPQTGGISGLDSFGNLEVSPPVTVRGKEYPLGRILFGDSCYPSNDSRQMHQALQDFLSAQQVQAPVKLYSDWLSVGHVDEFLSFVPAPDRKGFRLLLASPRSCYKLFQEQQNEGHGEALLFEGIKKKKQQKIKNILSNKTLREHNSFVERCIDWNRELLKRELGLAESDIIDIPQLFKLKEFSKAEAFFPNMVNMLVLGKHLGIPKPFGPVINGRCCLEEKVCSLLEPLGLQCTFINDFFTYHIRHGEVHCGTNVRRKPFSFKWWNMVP

Structure (SMILES) | pIC50
COCCn1c(-c2nc3cc4c(cc3n2C)CCN(C[C@@H](C)N)C4=O)cc2ccccc21 [Example 76, (R)-6-(2-aminopropyl)-2-(1-(2-methoxyethyl)-1H-indol-2-yl)-1-methyl-1,6,7,8-tetrahydro-5H-imidazo[4,5-g]isoquinolin-5-one] | < 6.00
C[C@@H](N)CN1CCc2cc3c(cc2C1=O)nc(-c1cc2ccccc2n1CCC1CC1)n3C [Example 77, (R)-6-(2-aminopropyl)-2-(1-(2-cyclopropylethyl)-1H-indol-2-yl)-1-methyl-1,6,7,8-tetrahydro-5H-imidazo[4,5-g]isoquinolin-5-one] | 6.30 to 7.00
C[C@@H](N)CN1CCc2cc3c(cc2C1=O)nc(-c1cc2ccccc2n1Cc1ccccc1)n3C [Example 78, (R)-6-(2-aminopropyl)-2-(1-benzyl-1H-indol-2-yl)-1-methyl-1,6,7,8-tetrahydro-5H-imidazo[4,5-g]isoquinolin-5-one] | 6.30 to 7.00
CCn1c(-c2nc3cc4c(cc3n2C)CCN(C[C@@H](C)N)C4=O)cc2cccnc21 [Example 79, (R)-6-(2-aminopropyl)-2-(1-ethyl-1H-pyrrolo[2,3-b]pyridin-2-yl)-1-methyl-1,6,7,8-tetrahydro-5H-imidazo[4,5-g]isoquinolin-5-one] | < 6.00
C[C@@H](N)CN1CCc2cc3c(cc2C1=O)nc(-c1cc2ccccc2n1Cc1cccnc1)n3C [Example 80, (R)-6-(2-aminopropyl)-1-methyl-2-(1-(pyridin-3-ylmethyl)-1H-indol-2-yl)-1,6,7,8-tetrahydro-5H-imidazo[4,5-g]isoquinolin-5-one] | 6.30 to 7.00
C[C@@H](N)CN1CCc2cc3c(cc2C1=O)nc(-c1cc2ccccc2n1Cc1ccncc1)n3C [Example 81, (R)-6-(2-aminopropyl)-1-methyl-2-(1-(pyridin-4-ylmethyl)-1H-indol-2-yl)-1,6,7,8-tetrahydro-5H-imidazo[4,5-g]isoquinolin-5-one] | < 6.00
C=CCn1c(-c2nc3cc4c(cc3n2C)CCN(C[C@@H](C)N)C4=O)cc2ccccc21 [Example 82, (R)-2-(1-allyl-1H-indol-2-yl)-6-(2-aminopropyl)-1-methyl-1,6,7,8-tetrahydro-5H-imidazo[4,5-g]isoquinolin-5-one] | 6.00 to 6.30
Cc1ccc2cc(-c3nc4cc5c(cc4n3C)CCN(C[C@@H](C)N)C5=O)n(CC3CCC3)c2c1 [Example 83] | 6.30 to 7.00
C[C@@H](N)CN1CCc2cc3c(cc2C1=O)nc(-c1cc2ccccc2n1Cc1ccccn1)n3C [Example 84, (R)-6-(2-aminopropyl)-1-methyl-2-(1-(pyridin-2-ylmethyl)-1H-indol-2-yl)-1,6,7,8-tetrahydro-5H-imidazo[4,5-g]isoquinolin-5-one] | 6.30 to 7.00
C[C@@H](O)CN1CCc2cc3c(cc2C1=O)nc(-c1cc2ccccc2n1CC1CC1)n3C [Example 85, (R)-2-(1-(cyclopropylmethyl)-1H-indol-2-yl)-6-(2-hydroxypropyl)-1-methyl-1,6,7,8-tetrahydro-5H-imidazo[4,5-g]isoquinolin-5-one] | < 6.00
COCCn1c(-c2nc3cc4c(cc3n2C)CCN(C[C@@H](C)N)C4=O)cc2cccc(C)c21 [Example 87, (R)-6-(2-aminopropyl)-2-(1-(2-methoxyethyl)-7-methyl-1H-indol-2-yl)-1-methyl-1,6,7,8-tetrahydro-5H-imidazo[4,5-g]isoquinolin-5-one] | 6.00 to 6.30
COCCn1c(-c2nc3cc4c(cc3n2C)CCN(C[C@@H](C)N)C4=O)cc2cccc(OC)c21 [Example 88, (R)-6-(2-aminopropyl)-2-(7-methoxy-1-(2-methoxyethyl)-1H-indol-2-yl)-1-methyl-1,6,7,8-tetrahydro-5H-imidazo[4,5-g]isoquinolin-5-one] | 6.30 to 7.00
Cc1cccc2cc(-c3nc4cc5c(cc4n3C)CCN(C[C@@H](C)N)C5=O)n(CC3CCC3)c12 [Example 89, (R)-6-(2-aminopropyl)-2-(1-(cyclobutylmethyl)-7-methyl-1H-indol-2-yl)-1-methyl-1,6,7,8-tetrahydro-5H-imidazo[4,5-g]isoquinolin-5-one] | 6.30 to 7.00
CCn1c(-c2nc3cc4c(cc3n2C)CCN(C[C@@H](C)N)C4=O)cc2cccc(OC)c21 [Example 90, (R)-6-(2-aminopropyl)-2-(1-ethyl-7-methoxy-1H-indol-2-yl)-1-methyl-1,6,7,8-tetrahydro-5H-imidazo[4,5-g]isoquinolin-5-one] | 6.30 to 7.00
COc1cccc2cc(-c3nc4cc5c(cc4n3C)CCN(C[C@@H](C)N)C5=O)n(CCOC3CC3)c12 [Example 91] | 6.30 to 7.00
C[C@@H](N)CN1CCc2cc3c(cc2C1=O)nc(-c1cc2ccccc2n1CC(C)(C)O)n3C [Example 92, (R)-6-(2-aminopropyl)-2-(1-(2-hydroxy-2-methylpropyl)-1H-indol-2-yl)-1-methyl-1,6,7,8-tetrahydro-5H-imidazo[4,5-g]isoquinolin-5-one] | < 6.00
Cn1c(-c2cc3ccccc3n2Cc2ccno2)nc2cc3c(cc21)CCN(C[C@H](N)CF)C3=O [Example 93, (S)-6-(2-amino-3-fluoropropyl)-2-(1-(isoxazol-5-ylmethyl)-1H-indol-2-yl)-1-methyl-1,6,7,8-tetrahydro-5H-imidazo[4,5-g]isoquinolin-5-one] | 6.30 to 7.00
COCCn1c(-c2nc3cc4c(cc3n2C)CCN(C[C@H](N)CF)C4=O)cc2ccccc21 [Example 94, (S)-6-(2-amino-3-fluoropropyl)-2-(1-(2-methoxyethyl)-1H-indol-2-yl)-1-methyl-1,6,7,8-tetrahydro-5H-imidazo[4,5-g]isoquinolin-5-one] | 6.00 to 6.30
Cn1cc(Cn2c(-c3nc4cc5c(cc4n3C)CCN(C[C@H](N)CF)C5=O)cc3ccccc32)cn1 [Example 95, (S)-6-(2-amino-3-fluoropropyl)-1-methyl-2-(1-((1-methyl-1H-pyrazol-4-yl)methyl)-1H-indol-2-yl)-1,6,7,8-tetrahydro-5H-imidazo[4,5-g]isoquinolin-5-one] | 6.00 to 6.30
Cn1nccc1Cn1c(-c2nc3cc4c(cc3n2C)CCN(C[C@H](N)CF)C4=O)cc2ccccc21 [Example 96, (S)-6-(2-amino-3-fluoropropyl)-1-methyl-2-(1-((1-methyl-1H-pyrazol-5-yl)methyl)-1H-indol-2-yl)-1,6,7,8-tetrahydro-5H-imidazo[4,5-g]isoquinolin-5-one] | < 6.00
Cc1cc(Cn2c(-c3nc4cc5c(cc4n3C)CCN(C[C@H](N)CF)C5=O)cc3ccccc32)on1 [Example 97, (S)-6-(2-amino-3-fluoropropyl)-1-methyl-2-(1-((3-methylisoxazol-5-yl)methyl)-1H-indol-2-yl)-1,6,7,8-tetrahydro-5H-imidazo[4,5-g]isoquinolin-5-one] | 6.30 to 7.00
Cn1c(-c2cc3ccccc3n2Cc2ccon2)nc2cc3c(cc21)CCN(C[C@H](N)CF)C3=O [Example 98, (S)-6-(2-amino-3-fluoropropyl)-2-(1-(isoxazol-3-ylmethyl)-1H-indol-2-yl)-1-methyl-1,6,7,8-tetrahydro-5H-imidazo[4,5-g]isoquinolin-5-one] | < 6.00
Cc1nnc(Cn2c(-c3nc4cc5c(cc4n3C)CCN(C[C@H](N)CF)C5=O)cc3ccccc32)o1 [Example 99, (S)-6-(2-amino-3-fluoropropyl)-1-methyl-2-(1-((5-methyl-1,3,4-oxadiazol-2-yl)methyl)-1H-indol-2-yl)-1,6,7,8-tetrahydro-5H-imidazo[4,5-g]isoquinolin-5-one] | < 6.00
Cc1cc(Cn2c(-c3nc4cc5c(cc4n3C)CCN(C[C@H](N)CF)C5=O)cc3ccccc32)no1 [Example 100, (S)-6-(2-amino-3-fluoropropyl)-1-methyl-2-(1-((5-methylisoxazol-3-yl)methyl)-1H-indol-2-yl)-1,6,7,8-tetrahydro-5H-imidazo[4,5-g]isoquinolin-5-one] | < 6.00
Cn1c(-c2cc3ccccc3n2CC2CCC2)nc2cc3c(cc21)CCN(C[C@H](N)CF)C3=O [Example 101, (S)-6-(2-amino-3-fluoropropyl)-2-(1-(cyclobutylmethyl)-1H-indol-2-yl)-1-methyl-1,6,7,8-tetrahydro-5H-imidazo[4,5-g]isoquinolin-5-one] | 6.30 to 7.00
COCCn1c(-c2nc3cc4c(cc3n2C)CCN(C[C@H](N)CF)C4=O)cc2ccc(OC)cc21 [Example 103, (S)-6-(2-amino-3-fluoropropyl)-2-(6-methoxy-1-(2-methoxyethyl)-1H-indol-2-yl)-1-methyl-1,6,7,8-tetrahydro-5H-imidazo[4,5-g]isoquinolin-5-one] | 6.00 to 6.30
COCCn1c(-c2nc3cc4c(cc3n2C)CCN(C[C@H](N)CF)C4=O)cc2ccc(Cl)nc21 [Example 104, (S)-6-(2-amino-3-fluoropropyl)-2-(6-chloro-1-(2-methoxyethyl)-1H-pyrrolo[2,3-b]pyridin-2-yl)-1-methyl-1,6,7,8-tetrahydro-5H-imidazo[4,5-g]isoquinolin-5-one] | 6.00 to 6.30
COCCn1c(-c2nc3cc4c(cc3n2C)CCN(C[C@H](N)CF)C4=O)cc2ccc(OC)nc21 [Example 105, (S)-6-(2-amino-3-fluoropropyl)-2-(6-methoxy-1-(2-methoxyethyl)-1H-pyrrolo[2,3-b]pyridin-2-yl)-1-methyl-1,6,7,8-tetrahydro-5H-imidazo[4,5-g]isoquinolin-5-one] | < 6.00
COCCn1c(-c2nc3cc4c(cc3n2C)CCN(C[C@H](N)CF)C4=O)cc2cccnc21 [Example 106, (S)-6-(2-amino-3-fluoropropyl)-2-(1-(2-methoxyethyl)-1H-pyrrolo[2,3-b]pyridin-2-yl)-1-methyl-1,6,7,8-tetrahydro-5H-imidazo[4,5-g]isoquinolin-5-one] | < 6.00
CCn1c(-c2nc3cc4c(cc3n2C)CCN(C[C@H](N)CF)C4=O)cc2cccc(OC)c21 [Example 107, (S)-6-(2-amino-3-fluoropropyl)-2-(1-ethyl-7-methoxy-1H-indol-2-yl)-1-methyl-1,6,7,8-tetrahydro-5H-imidazo[4,5-g]isoquinolin-5-one] | 6.00 to 6.30
